Measured values taken from ChEMBL document CHEMBL2021812, “Aryltriflates as a Neglected Moiety in Medicinal Chemistry: A Case Study from a Lead Optimization of CXCL8 Inhibitors” (ACS Med Chem Lett, 2011).
Activity calls are given as the source filed them. No cut-off for these calls is given here.

Legend:
[1] = target: T1, C-X-C chemokine receptor type 2 (Homo sapiens) (UniProt P25025); assay: Inhibition of CXCR2 in human polymorphonucleate cells assessed as inhibition of CXCL1-induced chemotaxis at 10^-8 M incubated for 15 mins prior to CXCL1-induction measured after 45 mins
T1 sequence (whole entry): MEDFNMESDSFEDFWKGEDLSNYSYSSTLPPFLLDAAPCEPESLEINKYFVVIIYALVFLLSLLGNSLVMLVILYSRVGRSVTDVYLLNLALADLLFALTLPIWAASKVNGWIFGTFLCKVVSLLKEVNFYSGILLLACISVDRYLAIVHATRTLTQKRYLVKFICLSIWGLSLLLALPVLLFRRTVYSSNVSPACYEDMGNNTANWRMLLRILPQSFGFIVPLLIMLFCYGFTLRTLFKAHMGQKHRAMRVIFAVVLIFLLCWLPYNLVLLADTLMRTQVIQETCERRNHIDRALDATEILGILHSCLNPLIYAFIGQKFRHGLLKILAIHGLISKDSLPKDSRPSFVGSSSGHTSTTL

[2] = target: Interleukin-8 receptors, CXCR1/CXCR2 (Homo sapiens) (UniProt P25025+P25024); assay: Inhibition of CXCR1/2 in human polymorphonucleate cells assessed as inhibition of CXCL8-induced chemotaxis at 10^-8 M incubated for 15 mins prior to CXCL8-induction measured after 45 mins
CYP2C19 = CYP2C19 (Homo sapiens, UniProt P33261); assay: Inhibition of CYP2C19 using DBF as substrate at 10 uM; format: ADME; details: probe DBF
CYP2C9 = CYP2C9 (Homo sapiens, UniProt P11712); assay: Inhibition of CYP2C9 using 7MFC as substrate at 10 uM; format: ADME; details: probe 7MFC
CYP3A4 = CYP3A4 (Homo sapiens, UniProt P08684); assay: Inhibition of CYP3A4 using BFC as substrate at 10 uM; format: ADME; details: probe BFC
CYP2D6 = CYP2D6 (Homo sapiens, UniProt P10635); assay: Inhibition of CYP2D6 using AMMC as substrate at 10 uM; format: ADME; details: probe AMMC
CYP1A2 = target: T2, CYP1A2 (Homo sapiens, UniProt P05177); assay: Inhibition of CYP1A2 using CEC as substrate at 10 uM; format: ADME; details: probe CEC
T2 sequence (P05177 whole entry): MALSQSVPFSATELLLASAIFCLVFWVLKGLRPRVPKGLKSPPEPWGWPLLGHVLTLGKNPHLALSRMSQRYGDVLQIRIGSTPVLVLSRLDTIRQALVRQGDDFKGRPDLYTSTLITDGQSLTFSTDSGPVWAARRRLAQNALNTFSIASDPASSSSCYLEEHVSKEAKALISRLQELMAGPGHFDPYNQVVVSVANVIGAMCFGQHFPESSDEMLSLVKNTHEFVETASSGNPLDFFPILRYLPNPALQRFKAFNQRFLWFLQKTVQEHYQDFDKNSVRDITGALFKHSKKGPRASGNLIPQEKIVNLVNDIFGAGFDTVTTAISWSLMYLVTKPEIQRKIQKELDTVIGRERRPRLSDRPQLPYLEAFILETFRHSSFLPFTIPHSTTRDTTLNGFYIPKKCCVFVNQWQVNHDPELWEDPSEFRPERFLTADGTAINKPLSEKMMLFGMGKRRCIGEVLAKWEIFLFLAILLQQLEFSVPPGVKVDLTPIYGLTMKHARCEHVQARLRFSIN

[3] = Chemical stability of the compound assessed as compound remaining at pH 7.4 after 2 hrs; format: physicochemical; details: buffer, read-out: Stability
[4] = Half life in iv dosed rat plasma; format: ADME, organism-based
[5] = Metabolic stability in rat liver microsomes assessed as compound remaining at 1 uM preincubated for 10 mins measured after 30 mins; format: ADME, Microsome; details: read-out: Stability
[6] = Metabolic stability in rat plasma assessed as compound remaining at 1 uM after 1 hr; format: ADME, cell-free; details: read-out: Stability

Sequence of CYP2D6 (P10635 whole entry): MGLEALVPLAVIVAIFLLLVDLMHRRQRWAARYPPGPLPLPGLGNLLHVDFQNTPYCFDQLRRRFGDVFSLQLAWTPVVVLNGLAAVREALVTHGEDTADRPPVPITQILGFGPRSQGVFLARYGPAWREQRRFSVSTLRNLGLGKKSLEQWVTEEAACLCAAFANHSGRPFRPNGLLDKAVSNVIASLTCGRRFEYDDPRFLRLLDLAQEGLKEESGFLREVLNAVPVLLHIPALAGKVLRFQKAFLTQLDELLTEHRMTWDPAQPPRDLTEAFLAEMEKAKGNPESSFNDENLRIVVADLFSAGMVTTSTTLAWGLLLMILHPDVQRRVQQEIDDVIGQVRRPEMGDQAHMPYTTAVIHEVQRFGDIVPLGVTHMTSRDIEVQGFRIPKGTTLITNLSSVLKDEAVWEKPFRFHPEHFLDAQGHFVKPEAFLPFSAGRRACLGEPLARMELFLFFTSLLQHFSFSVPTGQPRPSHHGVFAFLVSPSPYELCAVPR
Sequence of CYP2C9 (P11712 whole entry): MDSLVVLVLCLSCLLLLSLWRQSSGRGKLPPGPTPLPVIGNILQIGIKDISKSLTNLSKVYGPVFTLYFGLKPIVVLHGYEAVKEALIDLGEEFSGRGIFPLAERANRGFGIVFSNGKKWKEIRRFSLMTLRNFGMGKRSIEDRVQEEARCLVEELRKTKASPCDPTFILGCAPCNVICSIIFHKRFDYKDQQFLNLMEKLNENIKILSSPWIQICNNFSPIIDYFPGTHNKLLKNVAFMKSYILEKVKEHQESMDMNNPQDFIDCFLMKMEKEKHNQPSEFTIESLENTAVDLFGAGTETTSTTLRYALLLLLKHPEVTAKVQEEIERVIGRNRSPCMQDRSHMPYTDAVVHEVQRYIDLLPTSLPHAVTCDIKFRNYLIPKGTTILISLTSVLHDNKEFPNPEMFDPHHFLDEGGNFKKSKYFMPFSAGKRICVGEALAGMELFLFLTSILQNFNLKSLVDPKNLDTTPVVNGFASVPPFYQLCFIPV
Sequence of CYP2C19 (P33261 whole entry): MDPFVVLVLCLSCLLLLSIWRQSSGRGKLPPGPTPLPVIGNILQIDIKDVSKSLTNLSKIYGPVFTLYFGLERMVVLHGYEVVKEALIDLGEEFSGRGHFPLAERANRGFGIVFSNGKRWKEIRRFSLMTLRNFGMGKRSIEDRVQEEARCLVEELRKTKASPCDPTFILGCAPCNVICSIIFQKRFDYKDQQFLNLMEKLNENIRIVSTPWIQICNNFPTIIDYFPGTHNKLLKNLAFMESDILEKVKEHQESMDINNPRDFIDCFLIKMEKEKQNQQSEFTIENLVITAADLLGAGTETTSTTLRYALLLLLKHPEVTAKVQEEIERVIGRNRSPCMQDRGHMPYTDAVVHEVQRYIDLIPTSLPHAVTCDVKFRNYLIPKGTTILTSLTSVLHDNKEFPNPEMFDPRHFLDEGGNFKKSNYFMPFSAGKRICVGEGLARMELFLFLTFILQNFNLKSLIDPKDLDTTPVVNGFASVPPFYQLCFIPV
Sequence of CYP3A4 (P08684 whole entry): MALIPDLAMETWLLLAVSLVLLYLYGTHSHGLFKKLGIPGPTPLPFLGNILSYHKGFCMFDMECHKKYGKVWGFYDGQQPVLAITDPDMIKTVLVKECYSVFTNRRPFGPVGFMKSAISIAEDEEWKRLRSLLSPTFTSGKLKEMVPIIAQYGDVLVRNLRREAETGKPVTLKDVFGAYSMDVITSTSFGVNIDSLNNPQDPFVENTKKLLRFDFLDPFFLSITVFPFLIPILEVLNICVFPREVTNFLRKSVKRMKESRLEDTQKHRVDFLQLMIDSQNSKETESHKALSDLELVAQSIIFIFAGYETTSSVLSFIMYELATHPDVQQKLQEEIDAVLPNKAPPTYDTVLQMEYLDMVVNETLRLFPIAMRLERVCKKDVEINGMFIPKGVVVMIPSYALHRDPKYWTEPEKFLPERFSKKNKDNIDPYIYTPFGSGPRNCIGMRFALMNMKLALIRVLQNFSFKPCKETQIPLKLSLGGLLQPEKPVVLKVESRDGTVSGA
Sequence of Interleukin-8 receptors, CXCR1/CXCR2 (Homo sapiens) (P25024 whole entry, looked up, one chain of several): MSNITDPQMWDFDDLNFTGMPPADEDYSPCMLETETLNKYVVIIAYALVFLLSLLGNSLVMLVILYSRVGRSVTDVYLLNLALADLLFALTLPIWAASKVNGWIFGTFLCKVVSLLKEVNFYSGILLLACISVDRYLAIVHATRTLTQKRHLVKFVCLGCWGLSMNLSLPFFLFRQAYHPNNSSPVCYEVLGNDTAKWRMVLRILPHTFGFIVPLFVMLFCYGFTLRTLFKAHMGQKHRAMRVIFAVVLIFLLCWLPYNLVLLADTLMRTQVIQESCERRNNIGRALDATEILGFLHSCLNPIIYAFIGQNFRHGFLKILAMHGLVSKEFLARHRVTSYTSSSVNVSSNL

SMILES	inhibition [1]	inhibition [2]	inhibition at 10 µM (CYP2C19) [%]	inhibition at 10 µM (CYP2C9) [%]	inhibition at 10 µM (CYP3A4) [%]	inhibition at 10 µM (CYP2D6) [%]	inhibition at 10 µM (CYP1A2) [%]	remaining at 2 h [3] [%]	half-life [4] [h]	remaining at 0.5 h, 1 µM [5] [%]	remaining at 1 h, 1 µM [6] [%]
C[C@@H](C(=O)NS(=O)(=O)C1CC1)c1ccc(OS(=O)(=O)C(F)(F)F)cc1	45%	44%									
C[C@H](C(=O)NS(C)(=O)=O)c1ccc(OS(=O)(=O)C(F)(F)F)cc1	inactive	inactive									
C[C@@H](C(=O)Nc1ccccn1)c1ccc(OS(=O)(=O)C(F)(F)F)cc1	45%	43%	97	37	15	21	< 5				
C[C@@H](C(=O)Nc1nnc[nH]1)c1ccc(OS(=O)(=O)C(F)(F)F)cc1	45%	44%	21	< 5	8	< 5	< 5				
C[C@@H](C(=O)Nc1nc(C(F)(F)F)co1)c1ccc(OS(=O)(=O)C(F)(F)F)cc1	50%	60%	94	87	82	38	< 5				
CONC(=O)[C@H](C)c1ccc(OS(=O)(=O)C(F)(F)F)cc1	46%	56%						> 98	< 1	65	90
C[C@@H](C(=O)Nc1nncs1)c1ccc(OS(=O)(=O)C(F)(F)F)cc1	55%	54%	70	50	66	40	< 5				
C[C@@H](C(=O)NO)c1ccc(OS(=O)(=O)C(F)(F)F)cc1	49%	50%						> 98	< 1	87	85
C[C@@H](C(=O)Nc1nnco1)c1ccc(OS(=O)(=O)C(F)(F)F)cc1	48%	44%									
CC(C)ONC(=O)[C@H](C)c1ccc(OS(=O)(=O)C(F)(F)F)cc1	38%	49%								75	85
